Results on one compound are retold here after patent publication US12496298B2, “Natural killer cells” (Imperial College Innovations Limited, priority 2017, dated 2025).

The subject of this assay is mouse NK cell (NK1.1+CD3−) production from HPCs. Description: In vitro development of NK cells from mouse HPCs (NK cell development assay, flow cytometry at Day 9). It is filed as cell-based. The settings on record: for increase in NK cell production, rank among 2, 5, 10 and 20 μM: confirmation experiments (FIG. 4). An excerpt:
FIG. 2: Timeline of NK cell development assay. HPCs were isolated and cultured plus FIt3L, IL-7 and SCF cytokines. At Day 2, they were then transferred onto OP9 stromal cells plus or minus drug in culture medium plus the IL-15 cytokine. The media of the cultures were changed at Day 5 and the cells were harvested and analysed at Day 9.
Lineage negative cells are enriched for Hematopoietic Progenitor Cells (HPCs). […] Cells were harvested on Day 9 and analysed using flow cytometry to determine the number of NK1.1^+CD3^− cells (FIG. 2). NK1.1^+ and CD3^− are two cell surface markers that can define mouse NK cells. OP9 stromal cells were readily excluded from the analysis, as the OP9 stromal cells used were GFP positive (FIG. 3B). Flow cytometry data were analysed as the fold increase, relative to the ‘No drug’ or untreated control in each experiment. This is because the absolute percentage of NK cell production varies between experiments.
Lineage negative HSCs were purified from mouse bone marrow by crushing the leg bones in Phosphate-buffered Saline (PBS) with 2% fetal calf serum (FCS) (STEMCELL Technologies), topped up to 40 ml with magnetic-activated cell sorting (MACS) buffer (PBS, 2 mM EDTA, 0.5% BSA, sterile and filtered) and centrifuged at 800 g for 2 minutes. The cells were resuspended in PE-conjugated cocktail, (20 μl of anti-B220 (RA3-6B2), anti-mouse CD2 (RM2-5, anti-Ter119 (TER119) and anti-NK.1.1 (PK136) and 5 μl of anti-CD11b (M1/70) and anti-GR-1 (RB6-8C5) antibodies (all from Bioscience)) incubated for 5 minutes at 4° C., centrifuged and resuspended in anti-PE microbeads for 15 minutes at 4° C. Cells were washed in MACS buffer and passed through MACS columns. This allowed negative selection of HPCs. Following lineage depletion, 50 μl of the cells was analysed using flow cytometry to check for purity.
The HPCs were plated and cultured in 24-well plates at a concentration of 5×10^5 HPCs/well in 1 ml of complete cytokine medium (Dulbecco's modified eagle medium (DMEM) (Sigma Aldrich), 10% FCS, 50 μM β-Mercaptoethanol, 10 ng/ml Flt3-ligand (FIt3L) (R&D Systems), 10 ng/ml IL-7 (R&D Systems), 100 ng/ml stem cell factor (SCF) (R&D Systems) and 1% P/S) for 2 days at 37° C., 5% CO2. The HPCs were then transferred onto OP9 cells at 4500 cells/well for 96-well plate experiments and 3×10^4 cells/well for 24-well plate experiments in mouse NK cells differentiation medium (Alpha-MEM (Sigma Aldrich) plus 20% FCS, 1% P/S and 30 ng/ml IL-15). Cells were left in culture at 37° C., 5% CO2 for 7 days with a change of mouse NK cells differentiation medium at day 3 or 4.
Cells to be analysed by flow cytometry were passed through 40 μm cell strainers to remove clumps and washed with PBS buffer, centrifuged at 800 g for 2 minutes and resuspended in 100 μl fluorescent activated cell sorting (FACS) buffer (PBS plus 1% BSA) with appropriate fluorochrome conjugated antibodies at a dilution of 1 in 300. Cells were stained with the following antibodies, all of which were anti-mouse and are from eBioscience unless specified: 2B4 (clone m2B4(B6) 458.1; BioLegend), CD2 (RM2-5), CD3 (17A2), CD11b (M1/70), CD19 (1D3), CD27 (LG.7F9), CD122 (TM-b1), CD127 (A7R34), B220 (RA3-6B2), ckit (ACK2), Flt3 (A2F10), Gr1 (RB6-8C5), NK1.1 (PK136), Sca1 (D7), Ter119 (TER119), NKp46 (29A1.4) anti-human CD45 (HI30), anti-human CD2 (RPA-2.10) and anti-human CD56 (CMSSB). The lineage cocktail contained B220, CD2, CD11b, Gr1, NK1.1, and Ter119. Cells were stained in the dark at 4° C. for 30 minutes and then washed with 2 ml FACS buffer, centrifuged and resuspend in 300 μl FACS buffer plus Propidium Iodide (PI) also at a dilution of 1 in 300. Flow cytometry was performed using LSRFortessa™ cell analyser (Becton Dickinson Bioscience), sorted using FACSAria (Becton Dickinson) as indicated and full data analysis was done using FlowJo Software.
On the technique in general: Flow cytometry measures light scatter and fluorescence of single cells or particles in a stream.

With `CCOC(=O)C1Cc2ccccc2CN1C(=O)c1ccc(SC)s1` (centres unmarked) [SR8278, 1,2,3,4-Tetrahydro-2-[[5-(methylthio)-2-thienyl]carbonyl]-3-isoquinolinecarboxylic acid ethyl ester], the “NK cell production relative to 'No drug' control” value (5 μM added at Day 0 (greatest effect)) is listed as “over 1.4 fold” and the “NK cell production relative to 'No drug' control” value (5 or 10 μM added after Day 2) is listed as “no significant difference”. The “increase in NK cell production, rank among 2, 5, 10 and 20 μM” value reads like this: (5 μM) “followed by 5 μM”; (10 μM) “highest increase in NK cell production”. Further, the “NK cell production increase compared to 'No drug' control” value (10 μM added Day 2, analysed Day 9, screen (FIG. 3)) is “over 2.4 fold”. In addition, the “increase in NK cell production relative to 'No drug' control” value (10 μM added on Days 0, 1 and 2) is recorded as “over 1.6 fold”. The “number of NK cells detected” value (20 μM added Day 2, analysed Day 9) is on record as “reduction in the number of NK cells detected”. The “production of NK cells in NK cell production assays increases” value (summary in Discussion, concentration not given) is “more than 2 fold”.
